Assay results from US20240247015A1, “PHOSPHORUS DERIVATIVES AS NOVEL SOS1 INHIBITORS” (BAYER AKTIENGESELLSCHAFT, priority 2021, published 2024).

biological target: interaction of human SOS1 (SOS1) with human K-RasG12C (Homo sapiens (Human), UniProt Q07889); experiment: Biochemical assay: hK-RasG12C interaction assay with hSOS1 (HTRF); type: binding; conditions: GST-hK-RasG12C with His-hSOS1, 60 min incubation at 20° C., mean, read-out: K-RasG12C - SOS interaction assay IC50 (mean)
Method in brief: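 Compounds, duplicates at 11 concentrations from 0.073 nM to 20 µM, were preincubated 2 min with 10 nM GST-hK-RasG12C, then 20 nM His-hSOS1 was added, all at 20 °C. After 60 min, 665/620 nm HTRF ratio normalized to DMSO and SOS1-free controls; IC50 by 4-parameter fit.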

Chain of interaction of human SOS1 (SOS1) with human K-RasG12C (Q07889 564-1049 limits assumed): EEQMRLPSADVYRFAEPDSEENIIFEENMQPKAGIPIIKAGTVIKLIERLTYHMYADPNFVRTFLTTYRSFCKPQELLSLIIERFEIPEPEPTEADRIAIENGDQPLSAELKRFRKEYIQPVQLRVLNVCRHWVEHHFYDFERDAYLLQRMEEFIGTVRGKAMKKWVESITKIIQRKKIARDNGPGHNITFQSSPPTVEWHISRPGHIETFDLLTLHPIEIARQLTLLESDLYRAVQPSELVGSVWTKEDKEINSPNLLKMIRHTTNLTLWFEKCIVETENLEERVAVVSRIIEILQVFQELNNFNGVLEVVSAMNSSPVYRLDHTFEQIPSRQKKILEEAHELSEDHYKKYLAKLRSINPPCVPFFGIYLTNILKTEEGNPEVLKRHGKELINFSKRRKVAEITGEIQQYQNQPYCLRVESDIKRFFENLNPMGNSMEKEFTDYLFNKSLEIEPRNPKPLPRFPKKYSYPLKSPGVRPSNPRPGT

Q: For Cc1nc(N[C@H](C)c2cccc(C(F)(F)F)c2C)c2cc(P3(=O)CCN(C(=O)C4(F)CC4)CC3)ncc2n1 [Example 168, 1-(1-fluorocyclopropane-1-carbonyl)-4-[2-methyl-4-({(1R)-1-[2-methyl-3-(trifluoromethyl)phenyl]ethyl}amino)pyrido[3,4-d]pyrimidin-6-yl]-1,4lambda^5-azaphosphinan-4-one], which IC50 is on record?
A: Its IC50 is 12 nM.

Q: Cc1nc(N[C@H](C)c2cccc(C(F)(F)F)c2C)c2cc(P3(=O)CCN(C(=O)C4(C(F)F)CC4)CC3)ncc2n1 [Example 169, 1-[1-(difluoromethyl)cyclopropane-1-carbonyl]-4-[2-methyl-4-({(1R)-1-[2-methyl-3-(trifluoromethyl)phenyl]ethyl}amino)pyrido[3,4-d]pyrimidin-6-yl]-1,4lambda^5-azaphosphinan-4-one] was tested. Which IC50 did it give?
A: The IC50 was 9.55 nM.

Q: For Cc1nc(N[C@H](C)c2cccc(C(F)(F)F)c2C)c2cc(P3(=O)CCN(C(=O)C4CC(F)(F)C4)CC3)ncc2n1 [Example 170, 1-(3,3-difluorocyclobutane-1-carbonyl)-4-[2-methyl-4-({(1R)-1-[2-methyl-3-(trifluoromethyl)phenyl]ethyl}amino)pyrido[3,4-d]pyrimidin-6-yl]-1,4lambda^5-azaphosphinan-4-one], which IC50 is on record?
A: Its IC50 is 11.3 nM.

Q: Which IC50 does the source give for Cc1nc(N[C@H](C)c2cccc(C(F)(F)F)c2C)c2cc(P3(=O)CCN(C(=O)C(C)C)CC3)ncc2n1 [Example 171, 4-[2-methyl-4-{{(1R)-1-[2-methyl-3-(trifluoromethyl)phenyl]ethyl}amino)pyrido[3,4-d]pyrimidin-6-yl]-1-(2-methylpropanoyl)-1,4lambda^5-azaphosphinan-4-one] here?
A: The IC50 was 6.76 nM.

Q: Cc1nc(N[C@H](C)c2cccc(C(F)(F)C(C)(C)O)c2F)c2cc(P3(=O)CCN(C(=O)C4CC4)CC3)ncc2n1 [Example 172, 1-(cyclopropanecarbonyl)-4-[4-{{(1R)-1-[3-(1,1-difluoro-2-hydroxy-2-methylpropyl)-2-fluorophenyl]ethyl}amino)-2-methylpyrido[3,4-d]pyrimidin-6-yl]-1,4lambda^5-azaphosphinan-4-one] was tested. Which IC50 did it give?
A: The IC50 was 4.78 nM.

Q: With Cc1nc(N[C@H](C)c2cccc(C(F)(F)F)c2C)c2cc(P3(=O)CCN(C(=O)C4(O)CC4)CC3)ncc2n1 [Example 173, 1-(1-hydroxycyclopropane-1-carbonyl)-4-[2-methyl-4-({(1R)-1-[2-methyl-3-(trifluoromethyl)phenyl]ethyl}amino)pyrido[3,4-d]pyrimidin-6-yl]-1,4lambda^5-azaphosphinan-4-one] as the compound, how does the IC50 read?
A: The IC50 was 5.62 nM.

Q: Cc1nc(N[C@H](C)c2cccc(C(F)(F)F)c2C)c2cc(P3(=O)CCN(C(=O)C4CC4)CC3)ncc2n1 [Example 174, 1-(cyclopropanecarbonyl)-4-[2-methyl-4-({(1R)-1-[2-methyl-3-(trifluoromethyl)phenyl]ethyl}amino)pyrido[3,4-d]pyrimidin-6-yl]-1,4lambda^5-azaphosphinan-4-one] was tested. Which IC50 did it give?
A: Its IC50 is 3.89 nM.

Q: With Cc1nc(N[C@H](C)c2cccc(C(F)(F)F)c2C)c2cc(P3(=O)CCN(C(=O)c4cnn(C)c4)CC3)ncc2n1 [Example 175, 4-[2-methyl-4-{{(1R)-1-[2-methyl-3-(trifluoromethyl)phenyl]ethyl}amino)pyrido[3,4-d]pyrimidin-6-yl]-1-(1-methyl-1H-pyrazole-4-carbonyl)-1,4lambda^5-azaphosphinan-4-one] as the compound, how does the IC50 read?
A: Its IC50 is 9.07 nM.

Q: CO[C@@H](C)C(=O)N1CCP(=O)(c2cc3c(N[C@H](C)c4cccc(C(F)(F)F)c4C)nc(C)nc3cn2)CC1 [Example 176, 1-[(2S)-2-methoxypropanoyl]-4-[2-methyl-4-{{(1R)-1-[2-methyl-3-(trifluoromethyl)phenyl]ethyl}amino)pyrido[3,4-d]pyrimidin-6-yl]-1,4lambda^5-azaphosphinan-4-one] was tested. Which IC50 did it give?
A: Its IC50 is 6.82 nM.

Q: COCC(=O)N1CCP(=O)(c2cc3c(N[C@H](C)c4cccc(C(F)(F)F)c4C)nc(C)nc3cn2)CC1 [Example 177, 1-(methoxyacetyl)-4-[2-methyl-4-({(1R)-1-[2-methyl-3-(trifluoromethyl)phenyl]ethyl}amino)pyrido[3,4-d]pyrimidin-6-yl]-1,4lambda^5-azaphosphinan-4-one] was tested. Which IC50 did it give?
A: The IC50 was 5.01 nM.

Q: With Cc1nc(N[C@H](C)c2cccc(C(F)(F)F)c2C)c2cc(P3(=O)CCN(C(=O)C4(CO)CC4)CC3)ncc2n1 [Example 178, 1-[1-(hydroxymethyl)cyclopropane-1-carbonyl]-4-[2-methyl-4-{{(1R)-1-[2-methyl-3-(trifluoromethyl)phenyl]ethyl}amino)pyrido[3,4-d]pyrimidin-6-yl]-1,4lambda^5-azaphosphinan-4-one] as the compound, how does the IC50 read?
A: Its IC50 is 7.94 nM.

Q: For Cc1nc(N[C@H](C)c2cccc(C(F)(F)CNS(C)(=O)=O)c2F)c2cc(P3(=O)CCN(C(=O)C4CC4)CC3)ncc2n1 [Example 179, N-(2-{3-[(1R)-1-({6-[1-(cyclopropanecarbonyl)-4-oxo-1,4lambda^5-azaphosphinan-4-yl]-2-methylpyrido[3,4-d]pyrimidin-4-yl}amino)ethyl]-2-fluorophenyl}-2,2-difluoroethyl)methanesulfonamide], which IC50 is on record?
A: The IC50 was 3.68 nM.

Q: How did the IC50 turn out when CC(=O)NCC(F)(F)c1cccc([C@@H](C)Nc2nc(C)nc3cnc(P4(=O)CCN(C(=O)C5CC5)CC4)cc23)c1F [Example 180, N-(2-{3-[(1R)-1-({6-[1-(cyclopropanecarbonyl)-4-oxo-1,4lambda^5-azaphosphinan-4-yl]-2-methylpyrido[3,4-d]pyrimidin-4-yl}amino)ethyl]-2-fluorophenyl}-2,2-difluoroethyl)acetamide] was run?
A: Its IC50 is 4.6 nM.

Q: Which IC50 does the source give for Cc1nc(N[C@H](C)c2cccc(C(F)(F)CN(C)S(C)(=O)=O)c2F)c2cc(P3(=O)CCN(C(=O)C4CC4)CC3)ncc2n1 [Example 181, N-(2-{3-[(1R)-1-({6-[1-(cyclopropanecarbonyl)-4-oxo-1,4lambda^5-azaphosphinan-4-yl]-2-methylpyrido[3,4-d]pyrimidin-4-yl}amino)ethyl]-2-fluorophenyl}-2,2-difluoroethyl)-N-methylmethanesulfonamide] here?
A: Its IC50 is 2.95 nM.

Q: Which IC50 does the source give for CC(=O)N(C)CC(F)(F)c1cccc([C@@H](C)Nc2nc(C)nc3cnc(P4(=O)CCN(C(=O)C5CC5)CC4)cc23)c1F [Example 182, N-(2-{3-[(1R)-1-({6-[1-(cyclopropanecarbonyl)-4-oxo-1,4lambda^5-azaphosphinan-4-yl]-2-methylpyrido[3,4-d]pyrimidin-4-yl}amino)ethyl]-2-fluorophenyl}-2,2-difluoroethyl)-N-methylacetamide] here?
A: Its IC50 is 3.95 nM.

Q: Which IC50 does the source give for Cc1nc(N[C@H](C)c2cccc(C(F)F)c2F)c2cc(P3(=O)CCN(C(N)=O)CC3)ncc2n1 [Example 183] here?
A: Its IC50 is 8.38 nM.

Q: With Cc1nc(N[C@H](C)c2cccc(C(F)(F)F)c2C)c2cc(P3(=O)CCN(C(=O)NC4CC4)CC3)ncc2n1 [Example 184] as the compound, how does the IC50 read?
A: The IC50 was 5.62 nM.

Q: With Cc1nc(N[C@H](C)c2cccc(C(F)(F)F)c2C)c2cc(P3(=O)CCN(C(=O)NCC(F)F)CC3)ncc2n1 [Example 185] as the compound, how does the IC50 read?
A: Its IC50 is 3.86 nM.

Q: How did the IC50 turn out when Cc1nc(N[C@H](C)c2cccc(C(F)(F)F)c2C)c2cc(P3(=O)CCN(C(N)=O)CC3)ncc2n1 [Example 186] was run?
A: The IC50 was 4.71 nM.

Q: How did the IC50 turn out when CCOC(=O)N1CCP(=O)(c2cc3c(N[C@H](C)c4cccc(C(F)F)c4F)nc(C)nc3cn2)CC1 [Example 187] was run?
A: The IC50 was 12 nM.

Q: Which IC50 does the source give for Cc1nc(N[C@H](C)c2cccc(C(F)(F)F)c2C)c2cc(P3(=O)CCN(C(=O)N(C)C)CC3)ncc2n1 [Example 188] here?
A: The IC50 was 6.34 nM.

Q: Which IC50 does the source give for CCOC(=O)N1CCP(=O)(c2cc3c(N[C@H](C)c4cccc(C(F)(F)F)c4C)nc(C)nc3cn2)CC1 [Example 189] here?
A: Its IC50 is 20.6 nM.

Q: CC(=O)N1CCP(=O)(c2cc3c(N[C@H](C)c4cccc(C(F)F)c4C)nc(C)nc3cn2)CC1 [Example 190] was tested. Which IC50 did it give?
A: Its IC50 is 5.9 nM.

Q: CC(=O)N1CCP(=O)(c2cc3c(N[C@H](C)c4cccc(C(F)(F)F)c4Cl)nc(C)nc3cn2)CC1 [Example 191] was tested. Which IC50 did it give?
A: Its IC50 is 8.09 nM.

Q: With CC(=O)N1CCP(=O)(c2cc3c(N[C@H](C)c4cccc(C(F)(F)F)c4)nc(C)nc3cn2)CC1 [Example 192] as the compound, how does the IC50 read?
A: Its IC50 is 11.7 nM.

Q: With CC(=O)N1CCP(=O)(c2cc3c(N[C@H](C)c4cccc(C(F)(F)C(C)(C)O)c4F)nc(C)nc3cn2)CC1 [Example 193] as the compound, how does the IC50 read?
A: The IC50 was 4.1 nM.

Q: For CC(=O)N1CCP(=O)(c2cc3c(N[C@H](C)c4cccc(C(F)(F)F)c4C)nc(C(F)(F)F)nc3cn2)CC1 [Example 194], which IC50 is on record?
A: Its IC50 is 12.1 nM.

Q: CC(=O)N1CCP(=O)(c2cc3c(N[C@H](C)c4cccc(C(F)(F)F)c4C)nc(C(F)F)nc3cn2)CC1 [Example 195] was tested. Which IC50 did it give?
A: Its IC50 is 6.56 nM.

Q: With CC(=O)N1CCP(=O)(c2cc3c(N[C@H](C)c4cccc(C(F)(F)F)c4C)nc(Cl)nc3cn2)CC1 [Example 196] as the compound, how does the IC50 read?
A: The IC50 was 2.38 nM.

Q: For CC(=O)N1CCP(=O)(c2ccc3nc(C)nc(N[C@H](C)c4cccc(C(F)(F)F)c4C)c3c2)CC1 [Example 197], which IC50 is on record?
A: Its IC50 is 7.4 nM.

Q: With CC(=O)NCC(F)(F)c1cccc([C@@H](C)Nc2nc(C)nc3cnc(P4(=O)CCN(C(C)=O)CC4)cc23)c1F [Example 199] as the compound, how does the IC50 read?
A: The IC50 was 4.61 nM.

Q: Which IC50 does the source give for CC(=O)N1CCP(=O)(c2cc3c(N[C@H](C)c4cccc(C(F)(F)CN(C)S(C)(=O)=O)c4F)nc(C)nc3cn2)CC1 [Example 200] here?
A: Its IC50 is 3.95 nM.

Q: With CC(=O)N(C)CC(F)(F)c1cccc([C@@H](C)Nc2nc(C)nc3cnc(P4(=O)CCN(C(C)=O)CC4)cc23)c1F [Example 201] as the compound, how does the IC50 read?
A: The IC50 was 5.81 nM.

Q: With CC(=O)N1CCP(=O)(c2cc3c(N[C@H](C)c4cccc(C(F)(F)CN(C(C)=O)C5CC5)c4F)nc(C)nc3cn2)CC1 [Example 202] as the compound, how does the IC50 read?
A: The IC50 was 3.89 nM.

Q: With Cc1nc(N[C@H](C)c2cccc(C(F)(F)F)c2C)c2cc(P3(=O)CCN(C(=O)C(F)F)CC3)ncc2n1 [Example 203] as the compound, how does the IC50 read?
A: The IC50 was 5.65 nM.

Q: For Cc1nc(N[C@H](C)c2cccc(C(F)(F)F)c2Cl)c2cc(P3(=O)CCN(C(=O)C(F)F)CC3)ncc2n1 [Example 204], which IC50 is on record?
A: The IC50 was 5.96 nM.

Q: How did the IC50 turn out when Cc1nc(N[C@H](C)c2cccc(C(F)(F)F)c2)c2cc(P3(=O)CCN(C(=O)C(F)F)CC3)ncc2n1 [Example 205] was run?
A: The IC50 was 9.64 nM.

Q: With Cc1nc(N[C@H](C)c2cccc(C(F)F)c2F)c2cc(P3(=O)CCN(C(=O)C(F)F)CC3)ncc2n1 [Example 206] as the compound, how does the IC50 read?
A: Its IC50 is 3.77 nM.
